# From patent US12077503B2, “Substituted cyclic amides and their use as herbicides” (FMC CORPORATION, priority 2015, dated 2024)
# Columns and labels:
# Type in all cases: in vivo
# Kochia (Kochia scoparia) [1] = experiment: Test A preemergence; conditions: Bassia scoparia, pre-emergence, 240 h, 0 to 100 scale where 0 is no effect and 100 is complete control, read-out: Kochia plant response rating
# Outline: (§1)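 Seeds sprayed preemergence with a directed soil spray, or plants at 2 to 10 cm height and one- to two-leaf stage sprayed postemergence, with test chemicals in a non-phytotoxic solvent mixture containing surfactant, in loam soil–sand blend. Injury rated visually against untreated controls after about 10 d in greenhouse, 0 (no effect) to 100 (complete control).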
# [2] = tested on: barnyardgrass (Echinochloa crus-galli); experiment: Test A preemergence; conditions: Echinochloa crus-galli, pre-emergence, 240 h, 0 to 100 scale where 0 is no effect and 100 is complete control, read-out: Barnyardgrass plant response rating
# Outline: as §1
# [3] = tested on: giant foxtail (Setaria faberii); experiment: Test A preemergence; conditions: Setaria faberi, pre-emergence, 240 h, 0 to 100 scale where 0 is no effect and 100 is complete control, read-out: Foxtail, Giant plant response rating
# Outline: as §1
# [4] = tested on: pigweed (Amaranthus retroflexus); experiment: Test A preemergence; conditions: Amaranthus retroflexus, pre-emergence, 240 h, 0 to 100 scale where 0 is no effect and 100 is complete control, read-out: Pigweed plant response rating
# [5] = tested on: ragweed (common ragweed, Ambrosia elatior); experiment: Test A preemergence; conditions: Ambrosia artemisiifolia, pre-emergence, 240 h, 0 to 100 scale where 0 is no effect and 100 is complete control, read-out: Ragweed plant response rating
# Outline: as §1
# [6] = tested on: ryegrass, Italian (Italian ryegrass, Lolium multiflorum); experiment: Test A preemergence; conditions: Lolium multiflorum, pre-emergence, 240 h, 0 to 100 scale where 0 is no effect and 100 is complete control, read-out: Ryegrass, Italian plant response rating
# Outline: as §1
# [7] = tested on: Galium (catchweed bedstraw, Galium aparine); experiment: Test A postemergence; conditions: Galium, post-emergence, 240 h
# Outline: as §1
# Kochia (Kochia scoparia) [8] = experiment: Test A postemergence; conditions: Bassia scoparia, post-emergence, 240 h
# Outline: as §1
# [9] = tested on: barnyardgrass (Echinochloa crus-galli); experiment: Test A postemergence; conditions: Echinochloa crus-galli, post-emergence, 240 h
# Outline: as §1
# [10] = tested on: blackgrass (Alopecurus myosuroides); experiment: Test A postemergence; conditions: Alopecurus myosuroides, post-emergence, 240 h
# Outline: as §1
# corn (Zea mays) = experiment: Test A postemergence; conditions: Zea mays, post-emergence, 240 h
# Outline: as §1
# [11] = tested on: giant foxtail (Setaria faberii); experiment: Test A postemergence; conditions: Setaria faberi, post-emergence, 240 h
# Outline: as §1
# [12] = tested on: pigweed (Amaranthus retroflexus); experiment: Test A postemergence; conditions: Amaranthus retroflexus, post-emergence, 240 h
# Outline: as §1
# [13] = tested on: ragweed (common ragweed, Ambrosia elatior); experiment: Test A postemergence; conditions: Ambrosia artemisiifolia, post-emergence, 240 h
# Outline: as §1
# [14] = tested on: ryegrass, Italian (Italian ryegrass, Lolium multiflorum); experiment: Test A postemergence; conditions: Lolium multiflorum, post-emergence, 240 h
# Outline: as §1
# [15] = tested on: wheat (Triticum aestivum); experiment: Test A postemergence; conditions: Triticum aestivum, post-emergence, 240 h
# Outline: as §1
# [16] = tested on: barnyardgrass (Echinochloa crus-galli); experiment: Test B flooded paddy test; conditions: Echinochloa crus-galli, 250 g ai/ha, Flood; 0 to 100 scale where 0 is no effect and 100 is complete control; read-out: Barnyardgrass plant response rating
# Outline: (§2)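 Plants at 2-leaf stage flooded to 3 cm above soil, with compounds applied directly to paddy water and that depth maintained. Plants kept in greenhouse 13–15 d. Visual rating versus controls on a 0 (no effect) to 100 (complete control) scale.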
# [17] = tested on: ducksalad (Heteranthera limosa); experiment: Test B flooded paddy test; conditions: Heteranthera limosa, 250 g ai/ha, Flood; 0 to 100 scale where 0 is no effect and 100 is complete control; read-out: Ducksalad plant response rating
# Outline: as §2
# rice (Oryra sativa) = experiment: Test B flooded paddy test; conditions: Oryza sativa, 250 g ai/ha, Flood; 0 to 100 scale where 0 is no effect and 100 is complete control; read-out: Rice plant response rating
# Outline: as §2
# [18] = tested on: sedge, umbrella (small-flower umbrella sedge, Cyperus difformis); experiment: Test B flooded paddy test; conditions: Cyperus difformis, 250 g ai/ha, Flood; 0 to 100 scale where 0 is no effect and 100 is complete control; read-out: Sedge, Umbrella plant response rating
# Outline: as §2
# [19] = 125 g ai/ha, preemergence, approx. 10 d
smiles,measurement,setting,value
CN1C[C@H](c2ccc(F)c(Oc3ccccc3)c2)[C@@H](C(=O)Nc2ccccc2S(C)(=O)=O)C1=O [Compound 1143],pest or weed control at 31 g/ha,"Kochia (Kochia scoparia) [1]; 31 g ai/ha, Preemergence",0%
same,pest or weed control at 125 g/ha,Kochia (Kochia scoparia) [1]; [19],0%
same,pest or weed control at 31 g/ha,"[2]; 31 g ai/ha, Preemergence",0%
same,pest or weed control at 125 g/ha,[2]; [19],40%
same,pest or weed control at 31 g/ha,"[3]; 31 g ai/ha, Preemergence",20%
same,pest or weed control at 125 g/ha,[3]; [19],80%
same,pest or weed control at 31 g/ha,"[4]; 31 g ai/ha, Preemergence",0%
same,pest or weed control at 125 g/ha,[4]; [19],0%
same,pest or weed control at 31 g/ha,"[5]; 31 g ai/ha, Preemergence",0%
same,pest or weed control at 125 g/ha,[5]; [19],0%
same,pest or weed control at 31 g/ha,"[6]; 31 g ai/ha, Preemergence",0%
same,pest or weed control at 125 g/ha,[6]; [19],0%
same,pest or weed control at 125 g/ha,"[7]; 125 g ai/ha, postemergence, visual injury on 0 to 100 scale (0 no effect, 100 complete control), approx. 10 d, read-out: Galium plant response rating",0%
same,pest or weed control at 31 g/ha,"[7]; Postemergence, 31 g ai/ha, visual injury after approx. 10 d, 0 to 100 scale, 0 no effect, 100 complete control, read-out: Plant response rating, Galium",0%
same,pest or weed control at 125 g/ha,"Kochia (Kochia scoparia) [8]; 125 g ai/ha, postemergence, visual injury on 0 to 100 scale (0 no effect, 100 complete control), approx. 10 d, read-out: Kochia plant response rating",0%
same,pest or weed control at 31 g/ha,"Kochia (Kochia scoparia) [8]; Postemergence, 31 g ai/ha, visual injury after approx. 10 d, 0 to 100 scale, 0 no effect, 100 complete control, read-out: Plant response rating, Kochia",0%
same,pest or weed control at 125 g/ha,"[9]; 125 g ai/ha, postemergence, visual injury on 0 to 100 scale (0 no effect, 100 complete control), approx. 10 d, read-out: Barnyardgrass plant response rating",50%
same,pest or weed control at 31 g/ha,"[9]; Postemergence, 31 g ai/ha, visual injury after approx. 10 d, 0 to 100 scale, 0 no effect, 100 complete control, read-out: Plant response rating, Barnyardgrass",0%
same,pest or weed control at 125 g/ha,"[10]; 125 g ai/ha, postemergence, visual injury on 0 to 100 scale (0 no effect, 100 complete control), approx. 10 d, read-out: Blackgrass plant response rating",0%
same,pest or weed control at 31 g/ha,"[10]; Postemergence, 31 g ai/ha, visual injury after approx. 10 d, 0 to 100 scale, 0 no effect, 100 complete control, read-out: Plant response rating, Blackgrass",0%
same,plant injury at 125 g/ha,"corn (Zea mays); 125 g ai/ha, postemergence, visual injury on 0 to 100 scale (0 no effect, 100 complete control), approx. 10 d, read-out: Corn plant response rating",0%
same,"Corn plant response rating (crop injury, 0 = no effect, 100 = complete kill) at 31 g/ha","corn (Zea mays); Postemergence, 31 g ai/ha, visual injury after approx. 10 d, 0 to 100 scale, 0 no effect, 100 complete control",0%
same,pest or weed control at 125 g/ha,"[11]; 125 g ai/ha, postemergence, visual injury on 0 to 100 scale (0 no effect, 100 complete control), approx. 10 d, read-out: Foxtail, Giant plant response rating",40%
same,pest or weed control at 31 g/ha,"[11]; Postemergence, 31 g ai/ha, visual injury after approx. 10 d, 0 to 100 scale, 0 no effect, 100 complete control, read-out: Plant response rating, Foxtail, Giant",0%
same,pest or weed control at 125 g/ha,"[12]; 125 g ai/ha, postemergence, visual injury vs untreated controls after approx. 10 d, 0 = no effect, 100 = complete control, read-out: Pigweed plant response rating (0 to 100 scale)",20%
same,pest or weed control at 31 g/ha,"[12]; Postemergence, 31 g ai/ha, visual injury after approx. 10 d, 0 to 100 scale, 0 no effect, 100 complete control, read-out: Plant response rating, Pigweed",0%
same,pest or weed control at 125 g/ha,"[13]; 125 g ai/ha, postemergence, visual injury vs untreated controls after approx. 10 d, 0 = no effect, 100 = complete control, read-out: Ragweed plant response rating (0 to 100 scale)",0%
same,pest or weed control at 31 g/ha,"[13]; Postemergence, 31 g ai/ha, visual injury after approx. 10 d, 0 to 100 scale, 0 no effect, 100 complete control, read-out: Plant response rating, Ragweed",0%
same,pest or weed control at 125 g/ha,"[14]; 125 g ai/ha, postemergence, visual injury vs untreated controls after approx. 10 d, 0 = no effect, 100 = complete control, read-out: Ryegrass, Italian plant response rating (0 to 100 scale)",0%
same,pest or weed control at 31 g/ha,"[14]; Postemergence, 31 g ai/ha, visual injury after approx. 10 d, 0 to 100 scale, 0 no effect, 100 complete control, read-out: Plant response rating, Ryegrass, Italian",0%
same,plant injury at 125 g/ha,"[15]; 125 g ai/ha, postemergence, visual injury vs untreated controls after approx. 10 d, 0 = no effect, 100 = complete control, read-out: Wheat plant response rating (0 to 100 scale)",0%
same,plant injury at 31 g/ha,"[15]; Postemergence, 31 g ai/ha, visual injury after approx. 10 d, 0 to 100 scale, 0 no effect, 100 complete control, read-out: Plant response rating, Wheat",0%
same,pest or weed control at 250 g/ha,[16],0%
same,pest or weed control at 250 g/ha,[17],0%
same,pest or weed control at 250 g/ha,rice (Oryra sativa),0%
same,pest or weed control at 250 g/ha,[18],0%
